According to ChEMBL document CHEMBL1141318, “Cytotoxic lignans from the stem bark of Magnolia officinalis” (J Nat Prod, 2007):
In brackets after ≈: the same amount, converted by molar mass.

Columns and labels:
Type in all cases: functional, cell-based
[1] = tested on: A549; experiment: Cytotoxicity against human A549 cells by MTT assay
[2] = tested on: K562; experiment: Cytotoxicity against human K562 cells by MTT assay
[3] = tested on: HeLa; experiment: Cytotoxicity against human HeLa cells by MTT assay

With `COc1cc(/C=C/C=O)cc(OC)c1O[C@@H]1O[C@H](CO)[C@@H](O)[C@H](O)[C@H]1O` [SINAPALDEHYDE GLUCOSIDE] as the compound, how does the IC50 [1] read?
The IC50 was over 5 µg/mL.

What about the IC50 [2] of the same compound?
Its IC50 is over 5 µg/mL.

What about the IC50 [3] of the same compound?
Its IC50 is over 5 µg/mL.

Which results are given for `COc1ccc(-c2cc(/C=C/C=O)ccc2O)cc1/C=C/C=O`?
IC50 [1]: 1.5 µg/mL (≈ 4.86 µM); IC50 [2]: 3.7 µg/mL (≈ 12 µM); IC50 [3]: 3.9 µg/mL (≈ 12.6 µM)

With `COc1cccc2c1C(=O)c1c(O)c3c(c(O)c1C2=O)C[C@@](O)(C(=O)CO)C[C@@H]3O[C@H]1C[C@H](N)[C@H](O)[C@H](C)O1` [DOXORUBICIN] as the compound, how does the IC50 [1] read?
Its IC50 is 1.2 µg/mL (≈ 2.21 µM).

What about the IC50 [2] of the same compound?
Its IC50 is 1.41 µg/mL (≈ 2.59 µM).

What about the IC50 [3] of the same compound?
Its IC50 is 0.8 µg/mL (≈ 1.47 µM).

How did the IC50 [1] turn out when `C=CCc1cc(-c2cc(C=O)ccc2O)ccc1O` [MAGNALEDEHYDE E] was run?
Its IC50 is over 5 µg/mL.

What about the IC50 [2] of the same compound?
Its IC50 is over 5 µg/mL.

What about the IC50 [3] of the same compound?
The IC50 was over 5 µg/mL.

Which results are given for `C=CCc1cc(-c2cc(C=O)ccc2O)ccc1OC`?
IC50 [1]: > 5 µg/mL; IC50 [2]: > 5 µg/mL; IC50 [3]: > 5 µg/mL

Which results are given for `C=CCc1cc(-c2cc(/C=C/C=O)ccc2O)ccc1O` [MAGNALEDEHYDE B]?
IC50 [1]: > 5 µg/mL; IC50 [2]: > 5 µg/mL; IC50 [3]: > 5 µg/mL

What does the source list for `C=CCc1ccc(O)c(-c2ccc(O)c(CC=C)c2)c1` [HONOKIOL]?
IC50 [1]: > 5 µg/mL; IC50 [2]: > 5 µg/mL; IC50 [3]: > 5 µg/mL

With `C=CCc1cc(-c2cc(CC(O)CO)ccc2O)ccc1O` (stereo unspecified) [MAGNOLIGNAN] as the compound, how does the IC50 [1] read?
Its IC50 is over 5 µg/mL.

And the IC50 [2]?
The IC50 was over 5 µg/mL.

What about the IC50 [3] of the same compound?
Its IC50 is over 5 µg/mL.

Which results are given for `C=CCc1ccc(O)c(-c2ccc(OC)c(CC=C)c2)c1` [METHYLHONOKIOL]?
IC50 [1]: > 5 µg/mL; IC50 [2]: > 5 µg/mL; IC50 [3]: > 5 µg/mL

For `C=CCc1cc(-c2cc(/C=C/C=O)ccc2O)ccc1OC` [4'-METHOXYMAGNALEDEHYDE B], which IC50 [1] is on record?
Its IC50 is over 5 µg/mL.

What about the IC50 [2] of the same compound?
The IC50 was over 5 µg/mL.

What about the IC50 [3] of the same compound?
Its IC50 is over 5 µg/mL.

With `COc1cc(/C=C/CO)cc(OC)c1O[C@@H]1O[C@H](CO)[C@@H](O)[C@H](O)[C@H]1O` [SYRINGIN] as the compound, how does the IC50 [1] read?
The IC50 was over 5 µg/mL.

What about the IC50 [2] of the same compound?
Its IC50 is over 5 µg/mL.

And the IC50 [3]?
Its IC50 is over 5 µg/mL.

How did the IC50 [1] turn out when `C=CCc1ccc(O)c(-c2cc(CC=C)ccc2O)c1` [MAGNOLOL] was run?
Its IC50 is over 5 µg/mL.

What about the IC50 [2] of the same compound?
Its IC50 is over 5 µg/mL.

And the IC50 [3]?
Its IC50 is over 5 µg/mL.
